Results taken from US10144732B2 (BIOGEN MA INC., priority 2014, dated 2018).
Where a name gives a salt, the structure may show the parent alone.

Biological target: T1, Human ATX protein (Homo sapiens, UniProt Q13822)
T1 construct: made in house
Assay: ATX biochemical assay (FRET, FS-3 substrate)
Conditions: FRET assay, FS-3 2 μM, ATX 1.0 μg/mL, 30 minutes preincubation, 2 hours reaction at room temperature; read-out: IC50
How it was run: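 FRET read-out: cleavage of FS-3 (2 μM final) unquenches fluorescein, measured at 485/538 nm after 2 h at room temperature. Before substrate addition, in-house-expressed human autotaxin (1.0 μg/mL) sat with compound for 30 min in pH 7.4 Tris/NaCl/KCl/CaCl2/MgCl2 buffer containing fatty acid free-BSA at 1 mg/mL.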

Structure (SMILES)	IC50 [nM]
O=C(CN1CCC(C(F)(F)F)CC1)N1CCc2c(C(F)(F)F)nn(Cc3ccc(Cl)cc3F)c2C1 [Example 12-8, 1-(1-(4-Chloro-2-fluorobenzyl)-3-(trifluoromethyl)-4,5-dihydro-1H-pyrazolo[3,4-c]pyridin-6(7H)-yl)-2-(4-(trifluoromethyl)piperidin-1-yl)ethanone]	≤ 100
N[C@H]1CC[C@@H](CC(=O)N2CCc3c(C(F)(F)F)nn(Cc4ccc(F)cc4)c3C2)CC1 [Example 9-18, 2-(cis-4-Aminocyclohexyl)-1-(1-(4-fluorobenzyl)-3-(trifluoromethyl)-4,5-dihydro-1H-pyrazolo[3,4-c]pyridin-6(7H)-yl)ethanone TFA salt]	≤ 100
O=C(CC1CCC(O)CC1)N1CCc2c(C(F)(F)F)nn(Cc3ccc(Cl)cc3F)c2C1 (stereo not drawn) [Example 1-15, 1-(1-(4-Chloro-2-fluorobenzyl)-3-(trifluoromethyl)-4,5-dihydro-1H-pyrazolo[3,4-c]pyridin-6(7H)-yl)-2-(4-hydroxycyclohexyl)ethanone]	≤ 100
CCOC(=O)C1CCC(CC(=O)N2CCc3cnn(Cc4ccc(Cl)cc4F)c3C2)CC1 (stereo not drawn) [Example 1-4, Ethyl 4-(2-(1-(4-chloro-2-fluorobenzyl)-4,5-dihydro-1H-pyrazolo[3,4-c]pyridin-6(7H)-yl)-2-oxoethyl)cyclohexanecarboxylate]	≤ 100
O=C(C[C@H]1CC[C@@H](C(=O)O)CC1)N1CCc2cnn(Cc3ccc(Cl)cc3F)c2C1 [Example 7-4, cis-4-(2-(1-(4-chloro-2-fluorobenzyl)-4,5-dihydro-1H-pyrazolo[3,4-c]pyridin-6(7H)-yl)-2-oxoethyl)cyclohexanecarboxylic acid]	≤ 100
O=C(CC1CCN2CCCC2C1)N1CCc2c(C(F)(F)F)nn(Cc3ccc(Cl)cc3F)c2C1 (stereo not drawn) [Example 1-33, 1-(1-(4-Chloro-2-fluorobenzyl)-3-(trifluoromethyl)-4,5-dihydro-1H-pyrazolo[3,4-c]pyridin-6(7H)-yl)-2-(octahydroindolizin-7-yl)ethanone TFA salt]	≤ 100
O=C(NC12CCC(C(=O)O)(CC1)CC2)N1CCc2c(C(F)(F)F)nn(Cc3ccc(Cl)cc3F)c2C1 [Example 5-8, 4-(1-(4-Chloro-2-fluorobenzyl)-3-(trifluoromethyl)-4,5,6,7-tetrahydro-1H-pyrazolo[3,4-c]pyridine-6-carboxamido)bicyclo[2.2.2]octane-I-carboxylic acid]	≤ 100
O=C(C[C@H]1CC[C@@H](C(=O)O)CC1)N1CCc2c(C(F)(F)F)nn(Cc3ccc(Cl)s3)c2C1 [Example 5-25, cis-4-(2-(1-((5-Chlorothiophen-2-yl)methyl)-3-(trifluoromethyl)-4,5-dihydro-1H-pyrazolo[3,4-c]pyridin-6(7H)-yl)-2-oxoethyl)cyclohexanecarboxylic acid]	≤ 100
O=C(C[C@H]1CC[C@@H](C(=O)O)CC1)N1CCc2c(C(F)(F)F)nn(Cc3ccc(Cl)cc3Cl)c2C1 [Example 7-8, cis-4-(2-(1-(2,4-dichlorobenzyl)-3-(trifluoromethyl)-4,5-dihydro-1H-pyrazolo[3,4-c]pyridin-6(7H)-yl)-2-oxoethyl)cyclohexanecarboxylic acid]	≤ 100
O=C(C[C@H]1CC[C@@H](C(=O)O)CC1)N1CCc2c(C(F)(F)F)nn(Cc3ccc(F)cc3F)c2C1 [Example 5-34, cis-4-(2-(1-(2,4-Difluorobenzyl)-3-(trifluoromethyl)-4,5-dihydro-1H-pyrazolo[3,4-c]pyridin-6(7H)-yl)-2-oxoethyl)cyclohexanecarboxylic acid]	≤ 100
O=C(CC1CC(N2CCCC2)C1)N1CCc2c(C(F)(F)F)nn(Cc3ccc(F)cc3)c2C1 (stereo not drawn) [Example 22-3, 1-(1-(4-Fluorobenzyl)-3-(trifluoromethyl)-4,5-dihydro-1H-pyrazolo[3,4-c]pyridin-6(7H)-yl)-2-(3-(pyrrolidin-1-yl)cyclobutyl)ethanone TFA salt]	≤ 100
O=C(C[C@H]1CC[C@H](C(=O)O)CC1)N1CCc2c(C(F)(F)F)nn(Cc3ccccc3)c2C1 [Example 7-11, trans-4-(2-(1-Benzyl-3-(trifluoromethyl)-4,5-dihydro-1H-pyrazolo[3,4-c]pyridin-6(7H)-yl)-2-oxoethyl)cyclohexanecarboxylic acid]	≤ 100
O=C(CC1CCN(c2ccccn2)CC1)N1CCc2c(C(F)(F)F)nn(Cc3ccc(F)cc3)c2C1 [Example 18-2, 1-(1-(4-Fluorobenzyl)-3-(trifluoromethyl)-4,5-dihydro-1H-pyrazolo[3,4-c]pyridin-6(7H)-yl)-2-(1-(pyridin-2-yl)piperidin-4-yl)ethanone TFA salt]	≤ 100
NC12CCC(CC(=O)N3CCc4c(C(F)(F)F)nn(Cc5ccc(F)cc5)c4C3)(CC1)CC2 [Example 9-10, 2-(4-Aminobicyclo[2.2.2]octan-1-yl)-1-(1-(4-fluorobenzyl)-3-(trifluoromethyl)-4,5-dihydro-1H-pyrazolo[3,4-c]pyridin-6(7H)-yl)ethanone TFA salt]	100 to 250
CCOC(=O)[C@H]1CC[C@H](CC(=O)N2CCc3c(C(F)(F)F)nn(Cc4ccsc4)c3C2)CC1 [Example 1-45, trans-Ethyl-4-(2-oxo-2-(1-(thiophen-3-ylmethyl)-3-(trifluoromethyl)-4,5-dihydro-1H-pyrazolo[3,4-c]pyridin-6(7H)-yl)ethyl)cyclohexanecarboxylate]	≤ 100
O=C(N1CCc2c(C(F)(F)F)nn(Cc3ccc(F)cc3)c2C1)C12CCN(CC1)CC2 [Example 1-36, (1-(4-Fluorobenzyl)-3-(trifluoromethyl)-4,5-dihydro-1H-pyrazolo[3,4-c]pyridin-6(7H)-yl)(quinuclidin-4-yl)methanone TFA salt]	250 to 500
O=C(O)C1CCCN(CC(=O)N2CCc3c(C(F)(F)F)nn(Cc4ccc(F)cc4)c3C2)CC1 (stereo not drawn) [Example 13-19, 1-(2-(1-(4-Fluorobenzyl)-3-(trifluoromethyl)-4,5-dihydro-1H-pyrazolo[3,4-c]pyridin-6(7H)-yl)-2-oxoethyl)azepane-4-carboxylic acid TFA salt]	≤ 100
COc1ccc(Cn2nc(C(F)(F)F)c3c2CN(C(=O)C[C@H]2CC[C@H](C(=O)O)CC2)CC3)cc1 [Example 5-15, trans-4-(2-(1-(4-Methoxylbenzyl)-3-(trifluoromethyl)-4,5-dihydro-1H-pyrazolo[3,4-c]pyridin-6(7H)-yl)-2-oxoethyl)cyclohexanecarboxylic acid]	≤ 100
O=C(CC1CCNC1)N1CCc2c(C(F)(F)F)nn(Cc3ccc(F)cc3)c2C1 (stereo not drawn) [Example 9-23, 1-(1-(4-Fluorobenzyl)-3-(trifluoromethyl)-4,5-dihydro-1H-pyrazolo[3,4-c]pyridin-6(7H)-yl)-2-(pyrrolidin-3-yl)ethanone hydrochloride]	≤ 100
O=C(C1CN2CCC1CC2)N1CCc2c(C(F)(F)F)nn(Cc3ccc(F)cc3)c2C1 (stereo not drawn) [Example 1-35, (1-(4-Fluorobenzyl)-3-(trifluoromethyl)-4,5-dihydro-1H-pyrazolo[3,4-c]pyridin-6(7H)-yl)(quinuclidin-3-yl)methanone TFA salt]	100 to 250
O=C(O)C1CC(CC(=O)N2CCc3c(C(F)(F)F)nn(Cc4ccc(F)cc4)c3C2)C1 (mixture of isomers) [Example 6-9, 3-(2-(1-(4-Fluorobenzyl)-3-(trifluoromethyl)-4,5-dihydro-1H-pyrazolo[3,4-c]pyridin-6(7H)-yl)-2-oxoethyl)cyclobutanecarboxylic acid]	≤ 100
